Data reported in patent EP4623908A1, “USE OF (-)-EPIGALLOCATECHIN GALLATE COMPOUND” (CF Pharmtech, Inc., priority 2022, dated 2024).
Where two headings read alike, the source gives them in different places.

Key:
[1] = Drug concentration in rat plasma and lungs after tracheal nebulization and oral gavage (Example 2); assay type: in vivo, rats; conditions: for Cmax / AUC(0-t): plasma; for AUC(0-t): read-out: Plasma AUC0-t
Experimental: As shown in Example 1, after inhalation (such as tracheal nebulization) administration of 1.6 mg/kg EGCG and oral gavage administration of 60 mg/kg EGCG, the AUC0-t in rat plasma were similar. Based on this, this example investigates the changes in drug concentration in rat plasma and lungs over time after a single lower dose of tracheal nebulization (0.8 mg/kg) compared to oral gavage (60 mg/kg) of EGCG. Both the tracheal nebulization and oral gavage groups consist of 5 rats each.
2.1 Blood Sampling Method: Blood was taken via femoral artery. Samples were taken at 30 minutes, 2 hours, 4 hours, and 6 hours post-administration (4 sampling points). After blood collection, 0.9 wt% physiological saline was used to lavage the lungs twice, then the entire lung was removed, dried with filter paper, and stored at -20°C until further analysis.
2.2 Plasma Sample Processing Method: 1 mL of plasma was mixed with 3 mL of ethyl acetate solution, vortexed, centrifuged, and the supernatant was evaporated to dryness. The residue was reconstituted with a reconstitution solution, vortexed, and 100 µL was used for analysis of plasma drug concentration.
2.3 Lung Tissue Sample Processing Method: Lung tissue samples were weighed, and 3 times the volume of physiological saline (w:v) was added to homogenize. 1 mL of the homogenate was mixed with 3 mL of ethyl acetate solution, vortexed, centrifuged, and the supernatant was evaporated to dryness. The residue was reconstituted with a reconstitution solution, vortexed, and 100 µL was used for analysis of lung drug concentration.

[2] = Pharmacokinetics of low-dose tracheal nebulization and oral gavage in rat plasma and lungs (Example 3); assay type: in vivo, rats; conditions: for Lung AUC0-t / Lung Cmax: rat lung tissue, average
Experimental: As described in Example 1, the administration methods of oral gavage or tracheal nebulization of different doses of EGCG solution in rats were used to study the pharmacokinetic parameters of the drug in the lungs. The tracheal nebulization doses were 0.05 mg/kg, 0.1 mg/kg, 0.2 mg/kg, and 0.4 mg/kg, with 6-8 rats per dose group. The oral gavage dose was 60 mg/kg, with 6 rats.
The blood sampling method and sample processing were as described in Example 2. The blood collection time points for this experiment were 5 minutes, 2 hours, 6 hours, 8 hours, 10 hours, and 16 hours post-administration, with approximately […] of whole blood collected at each time point.

[3] = Single-dose escalation study of nebulized inhalation solution in healthy volunteers, safety and pharmacokinetics (Example 7); assay type: in vivo; conditions: for subjects with local symptoms in the oropharynx and respiratory tract: nebulized inhalation solution, single dose
Experimental: A randomized, double-blind, placebo-controlled clinical study was conducted with 22 healthy volunteers to evaluate the safety and tolerability of single-dose inhalation of EGCG nebulized solution, as well as pharmacokinetic characteristics, compared to placebo nebulized solution and oral EGCG capsules.
Test group: EGCG nebulized inhalation solution (the EGCG nebulized solution containing EDTA as described in Example 6), with an initial concentration of 10mg/mL, diluted to different doses before administration.
Oral control group: EGCG capsules, each weighing 150mg, with EGCG content approximately 94% of the total weight.
Refer to Table 6 below. The oral control group was randomly assigned 4 volunteers to receive 600mg of EGCG capsules (4 capsules, approximately 564mg of EGCG).
The EGCG nebulized inhalation treatment included 3 groups: • 1. 3mg dose group: 1mL of the starting drug solution was diluted to 1mg/mL, and 3mL was administered via the nebulizer. • 2. 10mg dose group: 1mL of the starting drug solution was diluted to 3.33mg/mL, and 3mL was administered via the nebulizer. • 3. 30mg dose group: The starting drug solution was not diluted, and 3mL was directly administered via the nebulizer.
Each nebulized inhalation dose group was randomly assigned 6 volunteers, starting with the lowest dose. In each group, 2 volunteers were designated as sentinels (1:1 randomization, 1 in the EGCG nebulized inhalation group and 1 in the placebo group), observed for ≥24 hours, and the study investigator performed a safety assessment. After permission from the investigator, the remaining 4 volunteers in each group received their assigned treatment (3:1 randomization, 3 in the EGCG nebulized inhalation group and 1 in the placebo group). Table 6: Group Information for Oral Control and EGCG Nebulized Inhalation Administration Groups.
Blood samples were collected from the subjects at 13 time points: pre-dose (within 1 hour before administration), and post-dose at 15 minutes, 30 minutes, 1 hour, 1.5 hours, 2 hours, 3 hours, 4 hours, 6 hours, 8 hours, 10 hours, 12 hours, and 24 hours. A total of 4mL of blood was collected at each time point, and plasma was extracted for pharmacokinetic (PK) testing, backup, and metabolite identification.
Adverse event (AE) monitoring; physical examination; vital signs (body temperature, blood pressure, pulse, respiration), blood oxygen saturation; heart function; lung function.

[4] = test system: TGFβ receptor 1 and 2 (TGFβR1/2) kinases; conditions: cited from earlier work
[5] = 26 IPF patients; oral co-administration; cited from earlier work
[6] = inhaled, tracheal nebulization (inh.0.8mg/kg)
[7] = tracheal nebulization (inh.0.8mg/kg)
[8] = Tracheal Nebulization (inh) 0.05 mg/kg
[9] = Tracheal Nebulization (inh) 0.1 mg/kg
[10] = Tracheal Nebulization (inh) 0.2 mg/kg
[11] = Tracheal Nebulization (inh) 0.4 mg/kg
[12] = rat, after oral gavage 60 mg/kg
[13] = human plasma, after inhalation compared to oral administration

Structure (SMILES): O=C(O[C@@H]1Cc2c(O)cc(O)cc2O[C@@H]1c1cc(O)c(O)c(O)c1)c1cc(O)c(O)c(O)c1 [EGCG, (-)-Epigallocatechin gallate]
- Kp ([1]; lung and plasma, inhaled, after inhalation 0.8 mg/kg, read-out: drug concentration in the lungs relative to that in plasma (higher)): 100
- Lung AUC0-t ([1]; oral gavage (po. 60mg/kg)): 115 ng·h/mL
- Lung Cmax ([1]; oral gavage (po. 60mg/kg)): 34.5 ng/mL
- Cmax [1, 6]: 153 ng/mL
- AUC(0-t) [1, 6]: 292 ng·h/mL
- Cmax ([1]; oral gavage (po. 60mg/kg)): 46 ng/mL
- AUC(0-t) ([1]; oral gavage (po. 60mg/kg)): 136 ng·h/mL
- Lung AUC0-t [1, 7]: 30891 ng·h/mL
- Lung Cmax [1, 7]: 12720 ng/mL
- Cmax ([2]; lung, inhaled or intranasal, rat, inhalation dose above 0.2 mg/kg, read-out: maximum drug concentration (Cmax) in the lungs): > 1000 ng/mL
- Lung AUC0-t [2, 8]: 284.7 ng·h/mL
- Lung Cmax [2, 8]: 79.6 ng/mL
- Lung AUC0-t [2, 9]: 1031.4 ng·h/mL
- Lung Cmax [2, 9]: 220.4 ng/mL
- Lung AUC0-t [2, 10]: 3082.7 ng·h/mL
- Lung Cmax [2, 10]: 1038.0 ng/mL
- Lung AUC0-t [2, 11]: 11764.1 ng·h/mL
- Lung Cmax [2, 11]: 3180.0 ng/mL
- Lung AUC0-t ([2]; oral gavage (po) 60 mg/kg): 226.4 ng·h/mL
- Lung Cmax ([2]; oral gavage (po) 60 mg/kg): 43.4 ng/mL
- lung concentration [2, 12]: less than 100 ng/mL
- plasma drug concentrations [2, 12]: less than 100 ng/mL
- inhalation dose as fraction of the oral dose at comparable lung drug concentration ([2]; rat, inh 0.05 mg/kg vs oral gavage 60 mg/kg): 1/1200
- peak concentration in the lungs of the oral administration ([2]; rat, oral gavage 60 mg/kg): 32 ng/mL
- drug concentration in the lungs ([2]; rat, tracheal nebulization of 0.1, 0.2, or 0.4 mg/kg, for up to 16 hours): greater than 50 ng/mL
- overall tolerability ([3]; after nebulized inhalation 3mg/10mg/30mg): overall tolerability was good
- physical examination, vital signs, heart function, and lung function ([3]; all subjects (nebulized 3mg/10mg/30mg, oral capsules 600mg)): No significant abnormalities
- inhalation Cmax relative to the oral Cmax ([3]; human plasma, 10mg nebulized dose group vs oral capsules 600mg): about 1/227
- Cmax level [3, 13]: lower
- time to reach peak plasma concentration (Tmax) [3, 13]: later
- subjects with local symptoms in the oropharynx and respiratory tract ([3]; 3mg dose group): no subjects
- subjects with local symptoms in the oropharynx and respiratory tract ([3]; 10mg dose group, mild): 1 out of 4
- subjects with local symptoms in the oropharynx and respiratory tract ([3]; 30mg dose group, mild): 2 out of 4
- inhibition of TGFβR1/2 kinases [4]: effectively inhibit
- reduction of the plasma exposure of Nintedanib on co-administration [5]: about 21%
